Our source for the IC50 values is patent US20250154131A1 (HAINAN SIMCERE PHARMACEUTICAL CO., LTD., priority 2021, published 2025).

Structures are written as SMILES.

This assay deals with SARS-COV-2 3CL Protease (Severe acute respiratory syndrome coronavirus 2 (2019-nCoV) (SARS-CoV-2), UniProt P0DTD1). The assay can be described thus: biochemical. Format: biochemical. The following applies: recombinant MBP-tagged 3CL protease, 30 min preincubation.

Turning to `CC1(C)[C@@H]2[C@@H](C(=O)N[C@H](C#N)C[C@@H]3CCNC3=O)N(C(=O)C(NC(=O)C(F)(F)F)C3CC4(CCC4)C3)C[C@@H]21` (stereo partly drawn) [Compound 3, (1R,2S,5S)—N—((S)-1-cyano-2-((S)-2-carbonylpyrrolidin-3-yl)ethyl)-6,6-dimethyl-3-(2-(spiro[3.3]heptan-2-yl)-2-(2,2,2-trifluoroacetamido)acetyl)-3-azabicyclo[3.1.0]hexane-2-carboxamide], the IC50 (commonly the midpoint of a concentration-inhibition curve) (class symbol column) is 100 to 1000 nM and the IC50 (numeric column) turned out to be 525 nM.
For `CC1(C)[C@@H]2[C@@H](C(=O)N[C@H](C#N)C[C@@H]3CCNC3=O)N(C(=O)[C@H](Cc3ccc4ccccc4c3)NC(=O)C(F)(F)F)C[C@@H]21` [Compound 4, (1R,2S,5S)—N—((S)-1-Cyano-2-((S)-2-carbonylpyrrolidin-3-yl)ethyl)-6,6-dimethyl-3-((S)-3-(naphthalen-2-yl)-2-(2,2,2-trifluoroacetamido)propanoyl)-3-azabicyclo[3.1.0]hexane-2-carboxamide], in that order: 100 to 1000 nM and 273 nM.
In the case of `CC1(C)[C@@H]2[C@@H](C(=O)N[C@H](C#N)CC3C(=O)Nc4ccccc43)N(C(=O)[C@@H](NC(=O)C(F)(F)F)C34CC5CC(CC(O)(C5)C3)C4)C[C@@H]21` (stereo partly drawn) [Compound 5, (1R,2S,5S)—N-((1S)-1-Cyano-2-(2-carbonylindolin-3-yl)ethyl)-3-((S)-2-((1r,3R,5R,7S)-3-hydroxyadamantan-1-yl)-2-(2,2,2-trifluoroacetamido)acetyl)-6,6-dimethyl-3-azabicyclo[3.1.0]hexane-2-carboxamide], the IC50 (class symbol column) is less than 100 nM and the IC50 (numeric column) turned out to be 69.8 nM.
For the compound `CN(C)C1CCC(C(NC(=O)C(F)(F)F)C(=O)N2C[C@H]3[C@@H]([C@H]2C(=O)N[C@H](C#N)C[C@@H]2CCNC2=O)C3(C)C)CC1` (stereo partly drawn) [Compound 6, (1R,2S,5S)—N—((S)-1-cyano-2-((S)-2-oxopyrrolidin-3-yl)ethyl)-3-(2-(4-(dimethylamino)cyclohexane)-2-(2,2,2-trifluoroacetamido)acetyl)-6,6-dimethyl-3-azabicyclo[3.1.0]cyclohexane-2-carboxamide], the IC50 (class symbol column) was 100 to 1000 nM and the IC50 (numeric column) stood at 449 nM.
For `CN(C)CCCC[C@H](NC(=O)C(F)(F)F)C(=O)N1C[C@H]2[C@@H]([C@H]1C(=O)N[C@H](C#N)C[C@@H]1CCNC1=O)C2(C)C` [Compound 7, (1R,2S,5S)—N—((S)-1-cyano-2-((S)-2-oxopyrrolidin-3-yl)ethyl)-3-(N^6,N^6-dimethyl-N^2-(2,2,2-trifluoroacetyl)-L-lysyl)-6,6-dimethyl-3-azabicyclo[3.1.0]cyclohexane-2-carboxamide], in that order: 1000 to 10000 nM and 1110 nM.
The like results for `CC(C)(C)[C@H](NC(=O)C(F)(F)F)C(=O)N1C[C@H]2[C@@H]([C@H]1C(=O)N[C@H](C#N)CC1C(=O)Nc3ncccc31)C2(C)C` (stereo partly shown) [Compound 8] were, in that order, less than 100 nM and 33.4 nM.
The like results for `CC(C)(C)[C@H](NC(=O)C(F)(F)Cl)C(=O)N1C[C@H]2[C@@H]([C@H]1C(=O)N[C@H](C#N)CC1C(=O)Nc3ccccc31)C2(C)C` (stereo partly drawn) [Compound 9, (1R,2S,5S)-3-((S)-2-(2-Chloro-2,2-difluoroacetamido)-3,3-dimethylbutanoyl)-N-((1S)-1-cyano-2-(2-oxoindol-3-yl)ethyl)-6,6-dimethyl-3-azabicyclo[3.1.0]hexane-2-carboxamide] were, in that order, less than 100 nM and 25.2 nM.
As to `CC1(C)[C@@H]2[C@@H](C(=O)N[C@H](C#N)C[C@@H]3CCNC3=O)N(C(=O)[C@@H](NC(=O)C(F)(F)F)C34C[C@@H]5C[C@@H](CC(O)(C5)C3)C4)C[C@@H]21` [Compound 10, (1R,2S,5S)—N—((S)-1-Cyano-2-((S)-2-oxopyrrolidin-3-yl)ethyl)-3-((S)-2-((1R,3R,5R,7S)-3-hydroxyadamantan-1-yl)-2-(2,2,2-trifluoroacetamido)acetyl)-6,6-dimethyl-3-azabicyclo[3.1.0]hexane-2-carboxamide], the IC50 is less than 100 nM (class symbol column) and 69.8 nM (numeric column).
